Test results reported in PubChem BioAssay (NCI).
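Cells were grown in 96-well plates and exposed to each compound for 48 hours at five concentrations; endpoints were interpolated linearly between bracketing concentrations, or set to the highest concentration if not reached. GI50 = concentration required for 50% inhibition of growth. At the TGI there is no net growth.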

Legend:
Experiment in all cases: DTP human tumour cell line panel, 48 h
[1] = tested on: 786-0 renal
[2] = tested on: SK-MEL-2 melanoma
[3] = tested on: CAKI-1 renal
[4] = tested on: RPMI-8226 leukemia
[5] = tested on: NCI-H460 lung
[6] = tested on: SNB-75 CNS
[7] = tested on: OVCAR-3 ovarian
[8] = tested on: SK-MEL-28 melanoma
[9] = tested on: K-562 leukemia
[10] = tested on: UO-31 renal
[11] = tested on: M14 melanoma
[12] = tested on: SN12C renal
[13] = tested on: HCT-15 colon
[14] = tested on: OVCAR-8 ovarian
[15] = tested on: SW-620 colon
[16] = tested on: U251 CNS
[17] = tested on: HT29 colon
[18] = tested on: SK-MEL-5 melanoma
[19] = tested on: UACC-257 melanoma
[20] = tested on: SR leukemia
[21] = tested on: TK-10 renal
[22] = tested on: SK-OV-3 ovarian
[23] = tested on: MDA-MB-231 breast
[24] = tested on: OVCAR-5 ovarian
[25] = tested on: ACHN renal
[26] = tested on: T-47D breast
[27] = tested on: HCT-116 colon
[28] = tested on: LOX IMVI melanoma
[29] = tested on: BT-549 breast
[30] = tested on: HOP-92 NSCLC
[31] = tested on: SF-539 CNS
[32] = tested on: IGROV1 ovarian
[33] = tested on: KM12 colon
[34] = tested on: SNB-19 CNS
[35] = tested on: HCC-2998 colon
[36] = tested on: UACC-62 melanoma
[37] = tested on: NCI-H522 lung
[38] = tested on: A549 NSCLC
[39] = tested on: MDA-MB-435
[40] = tested on: PC-3 prostate
[41] = tested on: A498 renal
[42] = tested on: NCI/ADR-RES ovarian
[43] = tested on: MOLT-4 leukemia
[44] = tested on: HOP-62 NSCLC
[45] = tested on: MALME-3M melanoma
[46] = tested on: MCF7 breast
[47] = tested on: CCRF-CEM leukemia
[48] = tested on: EKVX NSCLC
[49] = tested on: RXF 393 renal
[50] = tested on: DU-145 prostate
[51] = tested on: NCI-H226 lung
[52] = tested on: SF-268 CNS
[53] = tested on: NCI-H23 lung
[54] = tested on: HS 578T breast
[55] = tested on: COLO 205 colon
[56] = tested on: OVCAR-4 ovarian
[57] = tested on: SF-295 CNS

In the case of `C=CCc1c2c(c(OC)c3ccoc13)C(=O)/C(=C/c1ccccc1OC)O2`, the GI50 [1] is reported as 6.28 µM, the TGI [1] is reported as over 100 µM and the GI50 [2] is reported as 6.06 µM. The TGI [2] was over 100 µM, the GI50 [3] was 3.15 µM and the TGI [3] was 35.2 µM. The GI50 [4] was 3.51 µM, the TGI [4] was over 100 µM and the GI50 [5] was 3.46 µM. It also gave a TGI [5] of over 100 µM, a GI50 [6] of 1.44 µM and a TGI [6] of 4.91 µM. The GI50 [7] was 3.28 µM, the TGI [7] was 12.2 µM and the GI50 [8] was 5.21 µM. It also gave a TGI [8] of over 100 µM, a GI50 [9] of 3.51 µM and a TGI [9] of over 100 µM. For the same compound, the GI50 [10] was 4.98 µM, the TGI [10] was over 100 µM and the GI50 [11] was 8.19 µM. It also gave a TGI [11] of over 100 µM, a GI50 [12] of 4.85 µM and a TGI [12] of over 100 µM. The GI50 [13] was 3.6 µM, the TGI [13] was over 100 µM and the GI50 [14] was 3.87 µM. It also gave a TGI [14] of over 100 µM, a GI50 [15] of 4.24 µM and a TGI [15] of over 100 µM. It also gave a GI50 [16] of 3.53 µM, a TGI [16] of over 100 µM and a GI50 [17] of 3.98 µM. For the same compound, the TGI [17] was over 100 µM, the GI50 [18] was 3.91 µM and the TGI [18] was 92 µM. The GI50 [19] was 6.41 µM, the TGI [19] was over 100 µM and the GI50 [20] was 3.16 µM. For the same compound, the TGI [20] was over 100 µM, the GI50 [21] was 6.5 µM and the TGI [21] was over 100 µM. It also gave a GI50 [22] of 5.45 µM, a TGI [22] of 35.1 µM and a GI50 [23] of 4.59 µM. It also gave a TGI [23] of over 100 µM, a GI50 [24] of 3.57 µM and a TGI [24] of over 100 µM. For the same compound, the GI50 [25] was 4.33 µM, the TGI [25] was over 100 µM and the GI50 [26] was 4.34 µM. It also gave a TGI [26] of over 100 µM, a GI50 [27] of 3.29 µM and a TGI [27] of over 100 µM. It also gave a GI50 [28] of 3.13 µM, a TGI [28] of 27.1 µM and a GI50 [29] of 4.44 µM. It also gave a TGI [29] of over 100 µM, a GI50 [30] of 2.07 µM and a TGI [30] of 6.2 µM. The GI50 [31] was 5.45 µM, the TGI [31] was 72.8 µM and the GI50 [32] was 5.27 µM. For the same compound, the TGI [32] was over 100 µM, the GI50 [33] was 3.49 µM and the TGI [33] was 22.3 µM. For the same compound, the GI50 [34] was 5.83 µM, the TGI [34] was over 100 µM and the GI50 [35] was 2.85 µM. It also gave a TGI [35] of 7.85 µM, a GI50 [36] of 4.14 µM and a TGI [36] of 58.4 µM. It also gave a GI50 [37] of 3.16 µM, a TGI [37] of 31.7 µM and a GI50 [38] of 4.12 µM. For the same compound, the TGI [38] was over 100 µM, the GI50 [39] was 3.12 µM and the TGI [39] was over 100 µM. The GI50 [40] was 5.25 µM, the TGI [40] was over 100 µM and the GI50 [41] was 5.81 µM. The TGI [41] was 79.2 µM, the GI50 [42] was 2.82 µM and the TGI [42] was 10.8 µM. For the same compound, the GI50 [43] was 3.52 µM, the TGI [43] was over 100 µM and the GI50 [44] was 4.98 µM. It also gave a TGI [44] of 46.3 µM, a GI50 [45] of 19.8 µM and a TGI [45] of over 100 µM. The GI50 [46] was 2.92 µM, the TGI [46] was over 100 µM and the GI50 [47] was 3.44 µM. For the same compound, the TGI [47] was over 100 µM, the GI50 [48] was 4.41 µM and the TGI [48] was over 100 µM. The GI50 [49] was 2.47 µM, the TGI [49] was 6.92 µM and the GI50 [50] was 3.19 µM. The TGI [50] was over 100 µM, the GI50 [51] was 3.22 µM and the TGI [51] was 20.5 µM. It also gave a GI50 [52] of 3.73 µM, a TGI [52] of 60.4 µM and a GI50 [53] of 2.88 µM. It also gave a TGI [53] of 14.7 µM, a GI50 [54] of 5.29 µM and a TGI [54] of over 100 µM. It also gave a GI50 [55] of 7.64 µM, a TGI [55] of 69.5 µM and a GI50 [56] of 3.34 µM. It also gave a TGI [56] of over 100 µM, a GI50 [57] of 3.67 µM and a TGI [57] of over 100 µM.
